Test results published in paper PMC5666006, “Combating virulence of Gram-negative bacilli by OmpA inhibition” (Scientific Reports, 2017).
Where a SMILES comes first, the peptide text is derived from it. [ ]: non-standard residue; d: D form.

What was measured:
[1] = AOA-2 pharmacokinetics in serum; details: mouse, in vivo, ip, 10 mg/kg
A. baumannii ATCC 17978 [2] = assay: Murine peritoneal sepsis model; format: in vivo, mouse
Protocol: (§1) Murine peritoneal sepsis models with A. baumannii ATCC 17978, P. aeruginosa PaO1 or E. coli ATCC 25922 strains were established by i.p. inoculation of the bacteria. Briefly, mice were inoculated with 0.5 mL of the bacterial suspensions, which were incubated for 20–24 h in LB at 37 °C and mixed in a 1:1 ration with a saline solution containing 10% (w/v) porcine mucin (Sigma, Spain).
(§2) The murine peritoneal sepsis models by A. baumannii ATCC 17978, P. aeruginosa PaO1 or E. coli ATCC 25922 strains were established by i.p. inoculation of the bacteria. Briefly, animals were infected i.p. with 0.5 mL of the MLD100 of A. baumannii ATCC 17978, P. aeruginosa PaO1, or E. coli ATCC 25922 strains mixed 1:1 with 10% porcine mucin. […] Fifthy-six mice were randomly ascribed to the following groups: 1). controls (without treatment), and 2). […] Mortality was recorded over 72 h. After death or sacrifice of the mice at the end of the experimental period, aseptic thoracotomies were performed, and blood samples were obtained by cardiac puncture for qualitative blood cultures. The spleen and lungs were aseptically removed and homogenized (Stomacher 80; Tekmar Co., USA) in 2 mL of sterile NaCl 0.9% solution. Ten-fold dilutions of the homogenized spleen and lungs were plated onto Sheep blood agar for quantitative cultures (log CFU/g of spleen or lungs).

E. coli ATCC 25922 [3] = assay: Murine peritoneal sepsis model; format: in vivo, mouse
Protocol: as §1, §2

E. coli ATCC 25922 [4] = assay: Adhesion of bacteria to A549 cells; format: cell-based; details: 0.25 or 0.5 mg/mL, 2 h
Protocol: (§3) Subsequently, infected A549 cells were washed five times with pre-warmed PBS and lysed with 0.5% Triton X-100. Diluted lysates were plated onto blood agar (Blood-Agar Columbia, Becton Dickinson Microbiology Systems, USA) and incubated at 37 °C for 24 h for enumeration of developed colonies and then the determination of the number of bacteria that attached to A549 cells.

P. aeruginosa PaO1 [5] = assay: Adhesion of bacteria to A549 cells; format: cell-based; details: 0.25 or 0.5 mg/mL, 2 h
Protocol: as §3

A. baumannii ATCC 17978 [6] = assay: Adhesion of bacteria to A549 cells; format: cell-based; details: 2 h
Protocol: as §3
Figure S3. OmpA inhibitor hexapeptides reduce A. baumannii adherence to A549 cells. A549 cells were infected with 10^8 CFU/mL of ATCC 17978 strain during 2 h in presence of AOA-1, […]
of bacterial adherence was calculated as follow: [(number of colonies of treated A549 cells with peptide / number of colonies of non-treated cells) x 100]. Representative results of three independent experiments are shown; data are means ± SEM. *P<0.05: between untreated and […]

A. baumannii ATCC 17978 [7] = assay: Fibronectin-binding assay; format: cell-based; details: A. baumannii ATCC 17978, 0.25 or 0.5 mg/mL, 2 h
Protocol: (§4) Fibronectin-binding assay was performed as described previously. Briefly, A. baumannii ATCC 17978, P. aeruginosa PaO1, and E. coli ATCC 25922 grown overnight at 37 °C in LB were resuspended in PBS and collected by centrifugation at 5,000 × g for 10 min. […] Then, 50 µL of bacterial suspension were mixed with 50 µL of PBS, added to fibronectin coated wells and incubated 2 h at room temperature for bacterial adsorption. Non-adhered bacteria were discarded and wells were washed six times with sterile PBS to remove unbound bacteria. Adherent bacteria were then collected with 125 µL of sterile PBS containing 0.5% Triton X-100. Diluted lysates were plated onto sheep blood agar and incubated at 37 °C for 24 h for enumeration of developed colonies and then the determination of the number of bacteria that attached to fibronectin.

E. coli ATCC 25922 [8] = assay: Fibronectin-binding assay; format: cell-based; details: E. coli ATCC 25922, 0.25 or 0.5 mg/mL, 2 h
Protocol: as §4

P. aeruginosa PaO1 [9] = assay: Fibronectin-binding assay; format: cell-based; details: P. aeruginosa PaO1, 0.25 or 0.5 mg/mL, 2 h
Protocol: as §4

C57BL/6 female mice = assay: AOA-2 in vivo toxicity (Reed and Munch method); design: species or system mouse
Protocol: (§5) Animals were housed in regulation cages with food and water ad libitum. This study was carried out in strict accordance with the recommendations in the Guide for the Care and Use of Laboratory Animals[41]. The protocol was approved by the Committee on the Ethics of Animal Experiments of the University Hospital of Virgen del Rocío, Seville (2012PI/238). All surgery was performed under sodium thiopental anaesthesia, and all efforts were made to minimize suffering.
(§6) The Reed and Munch method was used[42]. […] LD50 value was determined using the Probit method.
(§7) 20, 40, 80 or 160 mg/kg. Mice survival was monitored for a one week and lethal doses (LD) 0,
(§8) 50 and 100 were calculated.

[10] = AOA-2 in vivo toxicity (Reed and Munch method); design: species or system mouse; details: female, C57BL/6, mouse, in vivo, ip, mice, single i.p. dose, groups of six, survival one week
Protocol: as §5, §6, §7, §8

E. coli OmpA = target: T1, E. coli OmpA (Escherichia coli, UniProt P0A910); assay: NMR detection of binding (1H, STD, PFG diffusion); details: AOA-2 750 μM, OmpA 8 μM, 1 mM Triton X-100, pH 7.3, 25 °C
T1 construct: A recombinant 37 kDa polypeptide fragment containing the transmembrane and periplasmatic domains of the E. coli OmpA protein; purchased NovoPro (China)
T1 sequence (P0A910 22-346): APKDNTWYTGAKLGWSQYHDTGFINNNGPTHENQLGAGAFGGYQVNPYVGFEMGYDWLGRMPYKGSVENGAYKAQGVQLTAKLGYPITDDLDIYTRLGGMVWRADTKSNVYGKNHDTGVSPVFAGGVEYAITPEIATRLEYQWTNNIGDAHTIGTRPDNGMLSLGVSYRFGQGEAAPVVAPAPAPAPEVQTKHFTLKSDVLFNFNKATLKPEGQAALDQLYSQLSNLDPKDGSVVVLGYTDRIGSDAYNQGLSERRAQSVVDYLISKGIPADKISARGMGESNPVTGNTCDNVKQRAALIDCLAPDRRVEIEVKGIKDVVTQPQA
Protocol: A recombinant 37 kDa polypeptide fragment containing the transmembrane and periplasmatic domains of the E. coli OmpA protein was purchased from NovoPro (China). OmpA samples contained Triton X-100 to mimic the membrane environment.
All NMR experiments were recorded at 25 °C on a Bruker Avance 800 MHz spectrometer equipped with a cryoprobe.
Saturation transfer difference[38] (STD) experiments were obtained using a pseudo-2D pulse sequence for the interleaved acquisition of on-resonance and off-resonance spectra. Total saturation time was 3 seconds. Suppression of the residual water signal was achieved by excitation sculpting.
Diffusion NMR experiments were performed using the LED pulse sequence[40] with gradient lengths of 3 ms and a diffusion delay of 110 ms. The total inter-scan delay was 4.5 s.

[11] = A. baumannii ATCC 17978, 10 mg/kg/d i.p., 72 h
[12] = A. baumannii ATCC 17978 MLD i.p., 10 mg/kg AOA-2 i.p. 2 h after challenge
[13] = E. coli ATCC 25922, 10 mg/kg/d i.p., 72 h
[14] = E. coli ATCC 25922 MLD i.p., 10 mg/kg AOA-2 i.p. 2 h after challenge

## N=C(N)NCCC[C@@H]1NC(=O)[C@H]2CCCN2C(=O)[C@H](Cc2c[nH]c3ccccc23)NC(=O)[C@H](CCCNC(=N)N)NC(=O)[C@H]2CCCN2C(=O)[C@H](Cc2c[nH]c3ccccc23)NC1=O [AOA-2] (cyclo(RW[dP]RW[dP]))
[1]
  half-life: 56 min
A. baumannii ATCC 17978 [2]; [11]
  mouse mortality (in words): decreased
  positive blood cultures (in words): decreased
A. baumannii ATCC 17978 [2]; [12]
  reduced the bacterial load in the lungs: 4.34 log CFU/g
  reduced the bacterial load in the spleen: 4.54 log CFU/g
E. coli ATCC 25922 [3]; [13]
  mouse mortality (in words): decreased
  positive blood cultures (in words): decreased
E. coli ATCC 25922 [3]; [14]
  reduced the bacterial load in the lungs: 3.47 log CFU/g
  reduced the bacterial load in the spleen: 3.36 log CFU/g
E. coli ATCC 25922 [4]
  adherence of E. coli to A549 cells (in words): significant reduction in adherence
P. aeruginosa PaO1 [5]
  adherence of P. aeruginosa to A549 cells (in words): significant reduction in adherence
A. baumannii ATCC 17978 [6]; 0.25 mg/mL, 10^8 CFU/mL
  reduction in the adherence of A. baumannii to A549 cells: more than 60%
A. baumannii ATCC 17978 [6]; 0.25, 0.5, 1 mg/mL
  ability to reduce A. baumannii adherence to A549 cells, rank among synthesized peptides (in words): greatest ability to reduce the A. baumannii adherence to A549 cells
A. baumannii ATCC 17978 [7]
  bacterial adherence to fibronectin (in words): significant decrease in the bacterial adherence to fibronectin
E. coli ATCC 25922 [8]
  bacterial adherence to fibronectin (in words): significant decrease in the bacterial adherence to fibronectin
P. aeruginosa PaO1 [9]
  bacterial adherence to fibronectin (in words): significant decrease in the bacterial adherence to fibronectin
C57BL/6 female mice; i.p.
  dose without any evidence of toxicity: ≤ 40 mg/kg
C57BL/6 female mice; single i.p. dose, groups of six, survival one week
  LD100: 160 mg/kg
[10]; Probit method
  LD50 at 168 h: 85 mg/kg
[10]; read-out: LD0 (maximum tolerated dose)
  MTD at 168 h: 40 mg/kg
E. coli OmpA
  binding to OmpA by NMR (in words): interacting with OmpA
